Patent US8822448B2, “Pyrazoloquinoline compound” (Astellas Pharma Inc., priority 2010, dated 2014)
Structures can show the parent of a compound that is named as a salt.

Biological target: PDE9 (Homo sapiens (Human), UniProt O76083)
Experiment: PDE9-inhibiting activity (SPA enzyme assay)
Assay type: biochemical
Details: IC50 values; cGMP 1 μM substrate, 30° C.; read-out: PDE9 inhibition
Description: The PDE9-inhibiting activity was measured by the following method. That is, to a buffer solution containing tris(hydroxymethyl)aminomethane-hydrochloric acid (40 mM, pH 8.0), magnesium chloride (5 mM), and 2-mercaptoethanol (4 mM) were added cGMP (1 μM) and ^3H-cGMP (0.33 μCi/ml) to give a substrate buffer solution. A test substance solution and an enzyme solution which had been adjusted to an optimal concentration were added thereto to perform a reaction at 30° C. The enzyme reaction was stopped by the addition of Scintillation Proximity Assay (SPA) Beads (Perkin Elmer, USA) containing 5 mM 3-isobutyl-1-methylxanthine (IBMX). For the enzyme activity, the amount of 5′-GMP, which is a reaction degradation product bound to SPA beads, was measured with a TopCount microplate reader (Hewlett Packard, USA). The inhibitory rate was calculated by taking the radioactivity of the control containing no test substance as (A), taking the radioactivity of the blank containing no enzyme as (B), and taking the radioactivity of the test substance as (C), and using the following equation.

Chain of PDE9 (O76083 whole entry): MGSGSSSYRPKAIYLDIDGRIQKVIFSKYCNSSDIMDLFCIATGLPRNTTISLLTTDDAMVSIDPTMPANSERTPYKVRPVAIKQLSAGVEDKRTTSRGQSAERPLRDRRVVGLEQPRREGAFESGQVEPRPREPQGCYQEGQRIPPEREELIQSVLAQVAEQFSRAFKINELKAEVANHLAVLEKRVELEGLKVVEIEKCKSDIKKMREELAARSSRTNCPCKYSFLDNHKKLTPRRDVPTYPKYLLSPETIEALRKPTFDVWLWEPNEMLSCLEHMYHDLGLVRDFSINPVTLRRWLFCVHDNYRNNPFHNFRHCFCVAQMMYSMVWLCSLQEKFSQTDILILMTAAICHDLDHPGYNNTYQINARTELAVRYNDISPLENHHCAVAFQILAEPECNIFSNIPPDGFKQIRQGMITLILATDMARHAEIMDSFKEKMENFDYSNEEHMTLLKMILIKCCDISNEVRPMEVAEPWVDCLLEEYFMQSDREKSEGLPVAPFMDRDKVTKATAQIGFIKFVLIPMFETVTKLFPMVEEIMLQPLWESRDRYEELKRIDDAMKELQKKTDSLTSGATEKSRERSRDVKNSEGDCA

| Compound | IC50 [nM] |
| --- | --- |
| COCCCCN1CCN(C(=O)c2cc3c(cc2C)[nH]c(=O)c2cnn(C4CCC4)c23)C[C@@H]1C [Example 146] | 5.2 |
| Cc1cc2[nH]c(=O)c3cnn([C@H]4CCOC4)c3c2cc1C(=O)N1CCC(OCC2CC2)CC1 [Example 198] | 3.2 |
| CCOCC1CCN(C(=O)c2cc3c(cc2C)[nH]c(=O)c2cnn([C@H]4CCOC4)c23)CC1 [Example 148] | 5.1 |
| CCc1cc2[nH]c(=O)c3cnn(C4CCOCC4)c3c2cc1C(=O)N1CCN(CCCCOC)[C@H](C)C1 [Example 129] | 1.1 |
| COCCCCN1CCN(C(=O)c2cc3c(cc2C)[nH]c(=O)c2cnn(CC4CC(F)(F)C4)c23)C[C@@H]1C [Example 204] | 6.2 |
| Cc1ccc(OC2CCN(C(=O)c3cc4c(cc3C)[nH]c(=O)c3cnn(C5CCN(C)CC5)c34)CC2)nc1 [Example 213] | 11 |
| Cc1cc2[nH]c(=O)c3cnn(C4CCC(F)(F)CC4)c3c2cc1C(=O)N1CCN(CCC(F)(F)F)[C@@H](C)C1 [Example 208] | 1.7 |
| CCOCCCN1CCN(C(=O)c2cc3c(cc2C)[nH]c(=O)c2cnn(C4CCC4)c23)CC1 [Example 70] | 17 |
| COCCCCN1CCN(C(=O)c2cc3c(cc2C)[nH]c(=O)c2cnn(C4CCC(F)(F)CC4)c23)C[C@@H]1C [Example 193] | 5.7 |
| Cc1cc2[nH]c(=O)c3cnn(C4CCOCC4)c3c2cc1C(=O)N1CCC(OC2CCC2)CC1 [Example 169] | 2.5 |
| Cc1cc2[nH]c(=O)c3cnn([C@H]4CCN(C)C4)c3c2cc1C(=O)N1CCN(c2ccc(F)c(C)n2)[C@@H](C)C1 [Example 181] | 4.4 |
| CCCOC1CCN(C(=O)c2cc3c(cc2C)[nH]c(=O)c2cnn([C@H]4CCOC4)c23)CC1 [Example 199] | 4.7 |
| COCCCN1CCN(C(=O)c2cc3c(cc2C)[nH]c(=O)c2cnn(C4CCCC4)c23)C[C@@H]1C [Example 655] | 4.7 |
| Cc1cc2[nH]c(=O)c3cnn(CC4CCC4)c3c2cc1C(=O)N1CCN(CCC(F)(F)F)[C@@H](C)C1 [Example 211] | 1.2 |
| COCCCCN1C[C@H](C)N(C(=O)c2cc3c(cc2C)[nH]c(=O)c2cnn(C4CCOCC4)c23)C[C@H]1C [Example 183] | 3.5 |
| CCOCCC1CCN(C(=O)c2cc3c(cc2C)[nH]c(=O)c2cnn(C4CCOCC4)c23)CC1 [Example 168] | 4.3 |
| Cc1cc2[nH]c(=O)c3cnn([C@H]4CCOC4)c3c2cc1C(=O)N1CCN(CCCOC(F)(F)F)CC1 [Example 219] | 15 |
| Cc1cc2[nH]c(=O)c3cnn(C4CCOCC4)c3c2cc1C(=O)N1CCC(OCC(F)F)CC1 [Example 94] | 1.7 |
| Cc1cc2[nH]c(=O)c3cnn(C4CCC4)c3c2cc1C(=O)N1CCN(CCC(F)(F)F)CC1 [Example 161] | 31 |
| Cc1cc2[nH]c(=O)c3cnn(C4CCOCC4)c3c2cc1C(=O)N1CC(N(C)CCC(F)(F)F)C1 [Example 150] | 8 |
| Cc1cc2[nH]c(=O)c3cnn([C@H]4CCOC4)c3c2cc1C(=O)N1CCC(OC[C@@H](C)F)CC1 [Example 220] | 16 |
| Cc1cc2[nH]c(=O)c3cnn(C4CCOCC4)c3c2cc1C(=O)N1C[C@@H](C)N(CCC(F)(F)F)C[C@@H]1C [Example 184] | 4.7 |

| Compound | IC50 [nM] |
| --- | --- |
| COCCCCN1CCN(C(=O)c2cc3c(cc2C)[nH]c(=O)c2cnn(C4CCCC4)c23)C[C@@H]1C [Example 186] | 3.8 |
| CCOCC1CCN(C(=O)c2cc3c(cc2C)[nH]c(=O)c2cnn(C4CCOCC4)c23)C1 (stereo not shown) [Example 92] | 6.1 |
| COCCCCN1CCN(C(=O)c2cc3c(cc2OC)[nH]c(=O)c2cnn(C4CCCC4)c23)CC1 [Example 123] | 18 |
| COCCCCN1C[C@H](C)N(C(=O)c2cc3c(cc2C)[nH]c(=O)c2cnn(CC4CC4)c23)C[C@H]1C [Example 187] | 8.4 |
| Cc1cc2[nH]c(=O)c3cnn([C@H]4CCN(C)C4)c3c2cc1C(=O)N1CCN(c2ccc(F)c(C)n2)[C@H](C)C1 [Example 182] | 5.5 |
| COCC(F)(F)CN1CCN(C(=O)c2cc3c(cc2C)[nH]c(=O)c2cnn([C@H]4CCOC4)c23)CC1 [Example 166] | 10 |
| Cc1cc2[nH]c(=O)c3cnn(CC4CC4)c3c2cc1C(=O)N1CCN(CCC(F)(F)F)[C@@H](C)C1 [Example 210] | 1.3 |
| Cc1cc2[nH]c(=O)c3cnn(C4CCOCC4)c3c2cc1C(=O)N1CCN(CCCC(F)(F)F)CC1 [Example 139] | 3 |
| Cc1cc2[nH]c(=O)c3cnn([C@H]4CCOC4)c3c2cc1C(=O)N1CCC(OC2CCC2)CC1 [Example 202] | 3.7 |
| Cc1cc2[nH]c(=O)c3cnn(C4CCOCC4)c3c2cc1C(=O)N1CCC(C(F)(F)F)CC1 [Example 192] | 11 |
| Cc1cc2[nH]c(=O)c3cnn(C4CCOCC4)c3c2cc1C(=O)N1CCN(CCCOC(F)(F)F)CC1 [Example 173] | 6.3 |
| Cc1cc2[nH]c(=O)c3cnn([C@H]4CCOC4)c3c2cc1C(=O)N1CCC(OC[C@H](C)F)CC1 [Example 178] | 4.4 |
| CCOCCC1CCN(C(=O)c2cc3c(cc2C)[nH]c(=O)c2cnn([C@H]4CCOC4)c23)CC1 [Example 201] | 6.6 |
| COCCC1CCN(C(=O)c2cc3c(cc2C)[nH]c(=O)c2cnn([C@H]4CCOC4)c23)CC1 [Example 668] | 9.8 |
| CCOCCCCN1CCN(C(=O)c2cc3c(cc2C)[nH]c(=O)c2cnn([C@H]4CCOC4)c23)CC1 [Example 660] | 28 |
| COCCCCN1CCN(C(=O)c2cc3c(cc2C)[nH]c(=O)c2cnn(CC4CC4)c23)C[C@@H]1C [Example 195] | 4.4 |
| Cc1cc2[nH]c(=O)c3cnn([C@H]4CCOC4)c3c2cc1C(=O)N1CCC(OCC(C)(F)F)CC1 [Example 191] | 9.5 |
| Cc1cc2[nH]c(=O)c3cnn(C4CCOCC4)c3c2cc1C(=O)N1CCN(Cc2cccnc2)CC1 [Example 2, 7-methyl-8-{[4-(pyridin-3-ylmethyl)piperazin-1-yl]carbonyl}-1-(tetrahydro-2H-pyran-4-yl)-1,5-dihydro-4H-pyrazolo[4,3-c]quinolin-4-one dihydrochloride] | 12 |
| Cc1cc2[nH]c(=O)c3cnn(C4CCOCC4)c3c2cc1C(=O)N1CCC2(CC1)COc1ccccc12 [Example 283] | 5.9 |
| COCCCN1CCN(C(=O)c2cc3c(cc2C)[nH]c(=O)c2cnn(C4CCC4)c23)C[C@@H]1C [Example 179] | 6.8 |
| CCOCCCCN1CCN(C(=O)c2cc3c(cc2C)[nH]c(=O)c2cnn(C4CCOCC4)c23)CC1 [Example 107] | 15 |
| CCN1CCN(C(=O)c2cc3c(cc2C)[nH]c(=O)c2cnn(C4CCN(C)CC4)c23)C[C@@H]1c1ccccc1 [Example 214] | 16 |

| Compound | IC50 [nM] |
| --- | --- |
| Cc1cc2[nH]c(=O)c3cnn(CC4CCC4)c3c2cc1C(=O)N1C[C@@H](C)N(CCC(F)(F)F)C[C@@H]1C [Example 190] | 7.5 |
| Cc1cc2[nH]c(=O)c3cnn([C@H]4CCOC4)c3c2cc1C(=O)N1CCC(OCC(F)(F)F)CC1 [Example 203] | 2.8 |
| Cc1cc2[nH]c(=O)c3cnn(C4CCOCC4)c3c2cc1C(=O)N1CCC2(CCCO2)CC1 [Example 87] | 12 |
| Cc1cc2[nH]c(=O)c3cnn([C@H]4CCOC4)c3c2cc1C(=O)N1CCN(CCCC(F)(F)F)CC1 [Example 200] | 9 |
| CCc1cc2[nH]c(=O)c3cnn(C4CCC4)c3c2cc1C(=O)N1CCN(CCC(F)(F)F)CC1 [Example 162] | 7 |
| COc1cc2[nH]c(=O)c3cnn(C4CCCC4)c3c2cc1C(=O)NCC(C)(C)N1CCOCC1 [Example 119] | 8.9 |
| Cc1cc2[nH]c(=O)c3cnn(C4CCOCC4)c3c2cc1C(=O)N1CCN(CCC(F)(F)F)[C@@H](C)C1 [Example 207] | 1.7 |
| CCOCC1CCN(C(=O)c2cc3c(cc2C(F)(F)F)[nH]c(=O)c2cnn(C4CCOCC4)c23)CC1 [Example 152] | 53 |
| Cc1cc2[nH]c(=O)c3cnn(C4CCOCC4)c3c2cc1C(=O)N1CC2CN(Cc3ccccc3)CC2C1 (stereo not shown) [Example 74] | 12 |
| Cc1cc2[nH]c(=O)c3cnn(C4CCOCC4)c3c2cc1C(=O)N1CCN(c2cnccn2)CC1 [Example 50] | 7.5 |
| COCCCCN1C[C@@H]2C[C@H]1CN2C(=O)c1cc2c(cc1C)[nH]c(=O)c1cnn(C3CCOCC3)c12 [Example 145] | 8.3 |
| Cc1cc2[nH]c(=O)c3cnn(C4CCCC4)c3c2cc1C(=O)N1CCN(CCC(F)(F)F)[C@@H](C)C1 [Example 212] | 2.4 |
| COCCCN1CCN(C(=O)c2cc3c(cc2C)[nH]c(=O)c2cnn(C4CCC(F)(F)CC4)c23)C[C@@H]1C [Example 624] | 10 |
| Cc1cc2[nH]c(=O)c3cnn([C@H]4CCOC4)c3c2cc1C(=O)N1CCN(CCC(F)(F)F)CC1 [Example 185] | 19 |
| COCCCN1CCN(C(=O)c2cc3c(cc2C)[nH]c(=O)c2cnn(CC4CCC4)c23)C[C@@H]1C [Example 648] | 2 |
| COCCCN1CCN(C(=O)c2cc3c(cc2C)[nH]c(=O)c2cnn(CC4CC4)c23)C[C@@H]1C [Example 640] | 3.3 |
| COCCCCN1CCN(C(=O)c2cc3c(cc2C)[nH]c(=O)c2cnn(CC4CCOCC4)c23)CC1 [Example 154] | 32 |
| Cc1cc2[nH]c(=O)c3cnn(CC4CC4)c3c2cc1C(=O)N1C[C@@H](C)N(CCC(F)(F)F)C[C@@H]1C [Example 188] | 14 |
| Cc1cc2[nH]c(=O)c3cnn(C4CCOCC4)c3c2cc1C(=O)N1CCC(O)(C(F)(F)F)CC1 [Example 221] | 24 |
| COCCCCN(C)[C@H]1CCN(C(=O)c2cc3c(cc2C)[nH]c(=O)c2cnn(C4CCOCC4)c23)C1 [Example 127] | 5 |
